Where “and” joins values, the source holds several entries; their conditions need not be identical. Equal entries are not always repeated. *1 amine or outer side, *2 acyl side, *3 side chain or, on linkers, in order; H or OH if unused. Where a SMILES comes first, the peptide text is derived from it. Bridges are numbered along the chain shown (N, C = ends). Roman numbers before positions name the chains, in order. [ ]: non-standard residue; d: D form. The star is where a group is joined. ξ: configuration not given here. X2 = CN1/C(=C/C=C/C=C/C2=[N+](CCCCCC(=O)*)c3ccc4ccccc4c3C2(C)C)C(C)(C)c2c1ccc1ccccc21; Hexanoyl(6-succinimido-3yl) = O=C1CC([*:1])C(=O)N1CCCCCC(=O)[*:2]; X3 = CC[C@H](C)[C@@H]([C@H](CC(=O)[*:2])OC)N(C)[*:1]; Dolaproine = CO[C@@H]([C@@H]1CCCN1)[C@@H](C)C(=O)O; Dil = CC[C@H](C)[C@H](NC)[C@@H](CC(=O)O)OC; γGlu = O=C(O)[C@H](CCC(=O)[*:2])N[*:1]; PABC = O=C(OCc1ccc(N[*:1])cc1)[*:2]; ξγGlu = O=C(O)C(CCC(=O)[*:2])N[*:1]; X4 = C[C@@H](N*)[C@@H](O)c1ccccc1; X1 = O=C(C1CCC(CN[*:1])CC1)[*:2]; Cit = NC(=O)NCCC[C@H](N)C(=O)O; NMeV = CN[C@H](C(=O)O)C(C)C; ξE = NC(CCC(=O)O)C(=O)O; CO = O=C([*:1])[*:2]; ξK = NCCCCC(N)C(=O)O; Ahx = NCCCCCC(=O)O; ξC = NC(CS)C(=O)O
Assays:
[1] = Maximum tolerated dose (single i.v. dose); format: in vivo, mice
From the text: Mice were monitored daily for 14 days.

[2] = tested on: heterotopic C4-2 tumors; test: Heterotopic C4-2 tumor study; parameters: species or system mice; conditions: mouse, in vivo
From the text: To show versatility of the antitumor activity of PSMA-1-VcMMAE-Cy5.5, we tested it in mice bearing heterotopic C4-2 tumors, which are androgen-independent prostate cancer cells endogenously expressing PSMA.

[3] = tested on: PC3pip cells; test: In vitro cytotoxicity assay (CCK-8, 72 h), PSMA-positive cells; format: cell-based; conditions: for potency to kill PC3pip cells in the presence of PSMA-1 ligand: 10 μM of PSMA-1; for effect of protease inhibitor E64 on cell killing potency: co-incubation with 50 μM E64
Protocol: (§1) Cells (1,000/well) were seeded in 96-well culture plates the day before treatment. Cells were incubated with various concentrations of drugs for 72 hours and cell viability evaluated by CCK-8 (Dojindo). The concentration required to reach 50% of cell proliferation was determined (IC50) by GraphPad Prism 3.0.

[4] = tested on: PC3pip and PC3flu tumors; test: In vivo NIR imaging of mice bearing PC3pip and PC3flu tumors; conditions: 40 nmol/kg i.v.
Protocol: Under guidelines of the animal care and use committee at Case Western Reserve University (IACUC #150033) 6 to 8-week old male Balb/cathymic nude mice were implanted subcutaneously with 1×10^6 of PC3flu and PC3pip on the left and right dorsum respectively. Mice received 40 nmol/kg of PSMA-1-VcMMAE-Cy5.5 or PSMA-1-McMMAE-Cy5.5 in PBS via tail vein injection when tumors reached 10 mm in diameter. Fluorescence imaging was performed using the Maestro In Vivo Imaging system (Perkin-Elmer). Multispectral images were unmixed into their component spectra (PSMA probes, autofluorescence, and background) to quantitate the average fluorescence intensity associated with the tumors using regions of interest (ROIs) around the tumors.

[5] = Stability of conjugates incubated in PBS without enzyme (HPLC); format: physicochemical; conditions: no enzyme
Protocol: (§2) PSMA-1-VcMMAE-Cy5.5 or PSMA-1-McMMAE-Cy5.5 was added to 500 μL of activated human liver cathepsin B (Anthens Research and Technology) solution (46) to a final concentration of 2 μM and incubated at 37° C. At different time intervals, 40 μL of the solution was taken out into tubes loaded with 1 μL of 1 mM E64 protease inhibitor. The mixture was vortexed and then stored at −80° C. for future HPLC analysis to assess degradation of PSMA-1-VcMMAE-Cy5.5 or PSMA-1-McMMAE-Cy5.5. Studies were performed in triplicate.
To investigate if PSMA-targeted drug conjugates were cleavable by cathepsin B, the two conjugates were incubated with or without the enzyme and chromatographed by HPLC. When the conjugates were incubated with PBS, both PSMA-1-VcMMAE-Cy5.5 and PSMA-1-McMMAE-Cy5.5 were stable (FIG. 11D).

[6] = target: T1, cathepsin B (Homo sapiens, UniProt P07858); test: Enzymatic cleavage by cathepsin B (HPLC); format: in vitro ADME; conditions: human, activated human liver cathepsin B solution; 2 μM conjugate, 37° C.; read-out: half-life in the presence of cathepsin B (converted)
T1 construct: purchased Anthens Research and Technology; host or cells: human liver (tissue-derived enzyme)
Protocol: as §2

[7] = target: T2, human liver cathepsin B (Homo sapiens, UniProt P07858); test: Enzymatic cleavage by cathepsin B (HPLC); format: in vitro ADME; conditions: 2 μM conjugate, 37° C.
T2 construct: purchased Anthens Research and Technology; host or cells: human liver (tissue-derived enzyme)
Protocol: as §2

[8] = tested on: metastatic PC3pip model; test: Metastatic PC3pip survival study (intracardiac GFP-PC3pip); format: in vivo, mice
Protocol: Male athymic nude mice were injected into the left ventricle of the heart with 1×10^5 GFP labeled PC3pip cells to generate bone metastasis. One week later mice received 160 nmol/kg PSMA-1-VcMMAE-Cy5.5 or PBS every 4 days with a total of 5 doses and the progression of disease was monitored by GFP imaging. Five mice were used in each group.

[9] = tested on: α-tubulin; test: Immunofluorescence analysis of alpha-tubulin in PC3pip and PC3flu cells; format: cell-based; conditions: 5 nM, 24 hours
Protocol: Cells on coverslips at about 70% confluency were incubated with 5 nM of MMAE, PSMA-1-VcMMAE-Cy5.5 or PSMA-1-McMMAE-Cy5.5 for 24 hours. Cells were washed and fixed with 4% paraformaldehyde for 10 minutes, permeabilized with 0.1% Triton™ X-100 for 10 minutes, and blocked with 1% BSA for 1 hour at room temperature. Alpha-tubulin (B5-1-2) Alexa Fluor 488 Mouse Monoclonal Antibody (Invitrogen) was then added at 2 μg/mL in 0.1% BSA and incubated for 3 hours at room temperature. Cells were counterstained with DAPI, mounted with Fluor-Mount aqueous mounting solution, and observed under Leica DM4000B fluorescence microscopy at 40×.

[10] = tested on: orthotopic PC3pip tumors; test: Orthotopic PC3pip tumor survival study; format: in vivo, mice
Protocol: Surgical orthotopic tumor implantation was performed as previously reported. Tumor growth/size was monitored using Siemens Acuson […] ultrasound scanner. When the tumors were at the appropriate size (5 mm as measured by ultrasound, approximately 2 weeks) animals were given PSMA-1-VcMMAE, PSMA-1-VcMMAE-Cy5.5, or PBS every four days with a total of 5 doses. Tumors were monitored every other day by ultrasound. Each group had five mice.

[11] = tested on: heterotopic PC3pip tumors; test: Heterotopic PC3pip tumor survival / antitumor study; format: in vivo; conditions: for tumor growth when given every 7 days: model not stated; for lowest dose effectively inhibiting tumor growth: mouse, in vivo
From the text: Male athymic nude mice were implanted subcutaneously with 1×10^6 of PC3pip cells under the right dorsum of the mice. When tumor size reached approximately 100 mm^3 (tumor volume=Length×width^2/2), mice received drugs through tail vein injection. […] Animals were weighed and tumor size measured every other day for 90 days. Cures were defined as no tumor present at end of the 90-day study. When tumors became too large or animals were moribund they were euthanized. Five mice were used in each group.

[12] = In vitro cytotoxicity assay (CCK-8, 72 h), PSMA-positive cells; format: cell-based; conditions: 72 hours
Protocol: as §1

[13] = tested on: PC3flu cells; test: In vitro cytotoxicity assay (CCK-8, 72 h), PSMA-negative cells; format: cell-based; conditions: relative to PSMA-1-VcMMAE-Cy5.5
Protocol: as §1

[14] = as above; format: cell-based; conditions: 72 hours, CCK-8; read-out: IC50, cytotoxicity to PC3flu cells
Protocol: as §1

[15] = 160 nmol/kg every 4 days, 5 doses
[16] = 3820 nmol/kg every 4 days, 5 doses

CC[C@H](C)[C@@H]([C@H](CC(=O)N1CCC[C@H]1[C@H](OC)[C@@H](C)C(=O)N[C@H](C)[C@@H](O)c1ccccc1)OC)N(C)C(=O)[C@@H](NC(=O)[C@H](C(C)C)N(C)C(=O)OCc1ccc(NC(=O)[C@H](CCCNC(N)=O)NC(=O)[C@@H](NC(=O)CCCCCN2C(=O)CC(SCC(NC(=O)C(CCC(=O)O)NC(=O)C(CCC(=O)O)NC(=O)C(CCC(=O)O)NC(=O)CCCCCNC(=O)C3CCC(CNC(=O)CCC(NC(=O)NC(CCC(=O)O)C(=O)O)C(=O)O)CC3)C(=O)NCCCCCC(=O)NC(CCCCNC(=O)CCCCC[N+]3=C(/C=C/C=C/C=C4/N(C)c5ccc6ccccc6c5C4(C)C)C(C)(C)c4c3ccc3ccccc43)C(N)=O)C2=O)C(C)C)cc1)C(C)C (stereo partly drawn) [PSMA-1-VcMMAE-Cy5.5] (I: {ξE-CO-ξγGlu}-[X1][Ahx][ξE][ξE][ξE][ξC][Ahx][ξK](X2)-NH2 / II: V[Cit][PABC][NMeV]V[X3][Dolaproine]-X4; linker I:6-II:N via Hexanoyl(6-succinimido-3yl))
MTD at 14 days ([1]; male, mouse, in vivo, iv, single dose i.v., tumor-free athymic nude mice, 14 days): 0.48 µmol/kg | cure rate [2]: 40% | weight loss [2]: no weight loss | potency to kill PC3pip cells in the presence of PSMA-1 ligand [3]: reduced to the same potency to kill PC3flu cells | IC50 ([3]; 72 hours, CCK-8): 0.84 nM and 0.75 nM | effect of protease inhibitor E64 on cell killing potency [3]: reduced the potency | time of peak uptake in PC3pip tumors post-injection [4]: 24 h | stability when incubated with PBS [5]: stable | half-life at 2 μM [6]: 19.8 min | cleavage in the presence of cathepsin B [7]: degraded rapidly | animal survival [8, 15]: all 5 treated mice survived the 90-day experimental period | body weight loss [8, 15]: no significant body weight loss | response (no GFP signal) [8, 15]: 100% | disruption of α-tubulin [9]: selective disruption of tubulin in PC3pip cells but not in PC3flu cells | cure at day 90 ([10]; every four days, 5 doses): 40% | body weight loss ([10]; mouse, in vivo): No significant body weight loss | cure rate (no tumors at end of study) ([11]; 160 nmol/kg every 4 days, 5 doses, 90 days): 60% | tumor growth ([11]; 160 nmol/kg i.v. every 4 days, 5 doses): effectively inhibited tumor growth as early as day 6 | tumor growth when given every 7 days [11]: greatly inhibited tumor growth | lowest dose effectively inhibiting tumor growth [11]: 80 nmol/kg

CC[C@H](C)[C@@H]([C@@H](CC(=O)N1CCC[C@H]1[C@H](OC)[C@@H](C)C(=O)N[C@H](C)[C@@H](O)c1ccccc1)OC)N(C)C(=O)[C@@H](NC(=O)[C@H](C(C)C)N(C)C(=O)OCc1ccc(NC(=O)[C@H](CCCNC(N)=O)NC(=O)[C@@H](NC(=O)CCCCCN2C(=O)CC(SC[C@H](NC(=O)[C@H](CCC(=O)O)NC(=O)[C@H](CCC(=O)O)NC(=O)[C@H](CCC(=O)O)NC(=O)CCCCCNC(=O)C3CCC(CNC(=O)CC[C@H](NC(=O)N[C@@H](CCC(=O)O)C(=O)O)C(=O)O)CC3)C(=O)NCCCCCC(=O)N[C@@H](CCCCN)C(N)=O)C2=O)C(C)C)cc1)C(C)C (stereo partly drawn) [PSMA-1-VcMMAE] (I: {Glu-CO-γGlu}-[X1][Ahx]EEEC[Ahx]K-NH2 / II: V[Cit][PABC][NMeV]V[Dil][Dolaproine]-X4; linker I:6-II:N via Hexanoyl(6-succinimido-3yl); C-terminus assumed)
MTD ([1]; mouse, in vivo, iv, single dose i.v., tumor-free athymic nude mice, 14 days): 7.64 µmol/kg | MTD relative to MMAE ([1]; single dose): more than 10 fold | potency to kill PC3pip cells in the presence of PSMA-1 ligand [3]: reduced to the same potency to kill PC3flu cells | ratio of IC50's between PC3pip and PC3flu cells ([3]; 72 hours): 48.2 | effect of protease inhibitor E64 on cell killing potency [3]: susceptible to E64 protease inhibition | increase of IC50 against PC3pip cells on removal of the Cy5.5 moiety ([3]; relative to PSMA-1-VcMMAE-Cy5.5): 6.2 fold | IC50 ([12]; CCK-8, read-out: IC50, cytotoxicity to PC3pip cells): 4.64 nM | selectivity ratio ([12]; PC3flu IC50 over PC3pip IC50, read-out: selectivity, differential cytotoxicity PC3pip vs PC3flu cells): 48 | survival and body weight ([8]; dose not stated): prolong animal survival time with no body weight loss | increase of IC50 against PC3flu cells on removal of the Cy5.5 moiety [13]: 11.1 fold | IC50 [14]: 222 nM | tumor free mice ([10]; 3860 nmol/kg, five mice per group): 1 mouse | tumor growth and survival ([10]; every four days, 5 doses, significant at 1910 and 3860 nmol/kg): Inhibition of tumor growth and extension of animal survival time | inhibition of PC3pip tumor growth compared with PC3flu tumor growth ([11]; 955 nmol/kg): significantly more effective | animal survival [11, 16]: all 5 mice survived the 90-day experimental time | cure (tumor free at end of 90-day study) [11, 16]: 60% | tumor growth when given every 7 days [11]: greatly inhibited tumor growth | lowest dose effectively inhibiting tumor growth [11]: 191 nmol/kg | body weight loss ([11]; up to highest dose tested, 3820 nmol/kg): No body weight loss

Source: US11202836B2, “PSMA targeted conjugate compounds and uses thereof” (CASE WESTERN RESERVE UNIVERSITY, priority 2018, dated 2021)
